Where two headings read alike, the source gives them in different places. Starred links: 1 amine or outer side, 2 acyl side, 3 side chain; linkers in the order of their positions; H or OH if unused. Non-standard residues stand in square brackets, D forms with d. Residues, ends and D or L forms follow the SMILES beside them. Groups on a side chain read outwards from the residue. *: point of attachment. C18 diacid = O=C(O)CCCCCCCCCCCCCCCCC(=O)*; γGlu = O=C(O)[C@H](CCC(=O)[*:2])N[*:1]; Palmitoyl = CCCCCCCCCCCCCCCC(=O)*; AEEA = NCCOCCOCC(=O)O; Aib = CC(C)(N)C(=O)O

One assay concerns the target T1, human CRF2α receptor (Homo sapiens, UniProt Q13324).
T1 construct: expressed in transfected cells; host or cells: TeloHEAC
T1 sequence (Q13324 1-411): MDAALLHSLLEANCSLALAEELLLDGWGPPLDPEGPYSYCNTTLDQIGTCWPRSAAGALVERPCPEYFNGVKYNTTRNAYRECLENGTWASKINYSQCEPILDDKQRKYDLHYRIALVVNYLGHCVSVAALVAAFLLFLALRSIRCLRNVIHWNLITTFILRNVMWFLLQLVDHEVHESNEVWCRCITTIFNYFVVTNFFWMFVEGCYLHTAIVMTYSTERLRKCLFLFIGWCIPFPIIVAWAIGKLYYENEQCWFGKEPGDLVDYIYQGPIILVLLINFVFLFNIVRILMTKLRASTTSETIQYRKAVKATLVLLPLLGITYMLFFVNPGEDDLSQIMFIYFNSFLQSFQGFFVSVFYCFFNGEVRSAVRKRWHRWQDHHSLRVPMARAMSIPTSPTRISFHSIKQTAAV
The assay can be described thus: cAMP agonism at human CRF2 α receptor in TeloHEAC cells (Example 7). As to conditions: cAMP HTRF, TeloHEAC cells stably expressing human CRF2 α. It counts as cell-based. The method, boiled down:
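Thawed frozen stably transfected cells in HBSS/20 mM HEPES (0% or 0.1% HSA) plus 2 mM IBMX were exposed to compound at 2000 cells/well for 30 min at room temperature. Intracellular cAMP was read by HTRF (665/620 nm ratio) after 1 h lysis; EC50 was derived with 1000 nM urocortin 2 set as 100%.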

In a further assay the test system is rat CRF2R α receptor. Briefly: cAMP agonism at rat CRF2R α receptor in A7R5 rat aortic smooth muscle cells (Example 8). As to conditions: cAMP HTRF, A7R5 rat aortic smooth muscle cell line, 0% HSA. It counts as cell-based. Here is the method: Cells were grown in a T175 culture flask placed at 37° C. to near confluence in medium (DMEM/10% FBS) and collected in 2 ml vials in cell culture medium containing 10% DMSO in a concentration of 10-50 million cells/ml. Each vial contained 1.8 ml cells. The vials were slowly frozen to −80° C. in isopropanol and then transferred in liquid nitrogen for storage. Prior to use, frozen cells were thawed quickly at 37° C. and washed (5 min at 900 rpm) with 20 ml cell buffer (1×HBSS; 20 mM HEPES; 0% or 0.1% HSA). Cells were resuspended in assay buffer (cell buffer plus 2 mM IBMX) and adjusted to a cell density of 1 million cells/ml. For measurement, 5 μl cells (final […]) and 5 μL of test compound were added to a 384-well plate, followed by incubation for 30 minutes at room temperature.
The CAMP content of cells was determined using a kit from Cisbio Corp. (cat. no. 62AM4PEC) based on HTRF (Homogenous Time Resolved Fluorescence). After addition of HTRF reagents diluted in lysis buffer (kit components), the plates were incubated for 1 h, followed by measurement of the fluorescence ratio at 665/620 nm. The percent activity value (E %) was calculated by setting 1000 nM of urocortin 2 (UCN2) as 100%. The in vitro potency of the compounds was quantified by determining the concentrations that caused 50% activation of maximal response (EC50).
Using the procedure described in Example 7, the activity of the compounds at the rat CRF2R α receptor was assessed. The A7R5 rat aortic smooth muscle cell line was used in this study.

[1] abbreviates: 0% HSA, read-out: EC50 [nM], 0% HSA.
[2] abbreviates: 0.1% HSA, read-out: EC50 [nM], 0.1% HSA.

In general, EC50 refers to the concentration giving half of the maximal effect. With `CC[C@H](C)[C@H](N)C(=O)N[C@H](C(=O)N[C@@H](CC(C)C)C(=O)N[C@@H](CO)C(=O)N[C@@H](CC(C)C)C(=O)N[C@@H](CC(=O)O)C(=O)N[C@H](C(=O)N1CCC[C@H]1C(=O)N[C@H](C(=O)N[C@@H](CCCCN)C(=O)N[C@@H](CC(C)C)C(=O)N[C@@H](CCCCNC(=O)COCCOCCNC(=O)COCCOCCNC(=O)CC[C@H](NC(=O)CCCCCCCCCCCCCCCCC(=O)O)C(=O)O)C(=O)N[C@@H](CCC(N)=O)C(=O)N[C@H](C(=O)N[C@@H](CC(C)C)C(=O)N[C@@H](CC(C)C)C(=O)N[C@@H](CCC(=O)O)C(=O)N[C@@H](CCC(N)=O)C(=O)N[C@@H](C)C(=O)N[C@@H](CCCCN)C(=O)N[C@@H](CCC(N)=O)C(=O)N[C@@H](CCCCN)C(=O)NC(C)(C)C(=O)N[C@@H](CC(C)C)C(=O)N[C@@H](CCCCN)C(=O)N[C@@H](C)C(=O)N[C@@H](CCC(N)=O)C(=O)N[C@@H](C)C(=O)N[C@@H](CCC(=O)O)C(=O)N[C@H](C(=O)N[C@@H](CC(N)=O)C(=O)N[C@H](C(=O)N[C@@H](CCCNC(=N)N)C(=O)N[C@H](C(=O)N[C@@H](CC(C)C)C(=O)N[C@@H](CCC(=O)O)C(=O)N[C@@H](CCCNC(=N)N)C(=O)N[C@H](C(N)=O)C(C)C)[C@@H](C)CC)C(C)C)[C@@H](C)O)[C@@H](C)CC)[C@@H](C)CC)C(C)C)C(C)C` [compound 45] (H-IVLSLDVPIKLK([AEEA-AEEA-γGlu-C18 diacid])QILLEQAKQK[Aib]LKAQAETNVRILERV-NH2), the EC50 at human CRF2α receptor (setting [1]) was determined as 3.77 nM; in the assay with rat CRF2R α receptor, 47.3 nM.
For `CC[C@H](C)[C@H](NC(C)=O)C(=O)N[C@H](C(=O)N[C@@H](CC(C)C)C(=O)N[C@@H](CO)C(=O)N[C@@H](CC(C)C)C(=O)N[C@@H](CC(=O)O)C(=O)N[C@@H](C(=O)N1CCC[C@H]1C(=O)N[C@H](C(=O)N[C@@H](CCCCN)C(=O)N[C@@H](CC(C)C)C(=O)N[C@@H](CCCCNC(=O)COCCOCCNC(=O)COCCOCCNC(=O)CC[C@H](NC(=O)CCCCCCCCCCCCCCCCC(=O)O)C(=O)O)C(=O)N[C@@H](CCC(N)=O)C(=O)N[C@H](C(=O)N[C@@H](CC(C)C)C(=O)N[C@@H](CC(C)C)C(=O)N[C@@H](CCC(=O)O)C(=O)N[C@@H](CCC(N)=O)C(=O)N[C@@H](C)C(=O)N[C@@H](CCCNC(=N)N)C(=O)N[C@@H](CCC(N)=O)C(=O)N[C@@H](CCCCN)C(=O)NC(C)(C)C(=O)N[C@@H](CCC(N)=O)C(=O)N[C@@H](CCCNC(=N)N)C(=O)N[C@@H](CCC(=O)O)C(=O)N[C@@H](CCC(N)=O)C(=O)N[C@@H](C)C(=O)N[C@@H](CCC(=O)O)C(=O)N[C@@H](CCCCN)C(=O)N[C@@H](CC(N)=O)C(=O)N[C@@H](CCCCN)C(=O)N[C@@H](CCC(N)=O)C(=O)N[C@H](C(=O)N[C@@H](CC(C)C)C(=O)N[C@@H](CCC(=O)O)C(=O)N[C@@H](CCC(N)=O)C(=O)N[C@H](C(N)=O)C(C)C)[C@@H](C)CC)[C@@H](C)CC)[C@@H](C)CC)C(C)C)C(C)C` [compound 157] (Ac-IVLSLD[dV]PIKLK([AEEA-AEEA-γGlu-C18 diacid])QILLEQARQK[Aib]QREQAEKNKQILEQV-NH2), the EC50 on human CRF2α receptor (setting [1]) amounted to 0.12 nM; on human CRF2α receptor (setting [2]), 2.53 nM; in the assay with rat CRF2R α receptor it was 1.14 nM.
On the same counts, the results for `CC[C@H](C)[C@H](NC(C)=O)C(=O)N[C@H](C(=O)N[C@@H](CC(C)C)C(=O)N[C@@H](CO)C(=O)N[C@@H](CC(C)C)C(=O)N[C@@H](CC(=O)O)C(=O)N[C@@H](C(=O)N1CCC[C@H]1C(=O)N[C@H](C(=O)N[C@@H](CCCCN)C(=O)N[C@@H](CC(C)C)C(=O)N[C@@H](CCCCNC(=O)COCCOCCNC(=O)COCCOCCNC(=O)CC[C@H](NC(=O)CCCCCCCCCCCCCCCCC(=O)O)C(=O)O)C(=O)N[C@@H](CCC(N)=O)C(=O)N[C@H](C(=O)N[C@@H](CC(C)C)C(=O)N[C@@H](CC(C)C)C(=O)N[C@@H](CCC(=O)O)C(=O)N[C@@H](CCC(N)=O)C(=O)N[C@@H](CCC(=O)O)C(=O)N[C@@H](CCCNC(=N)N)C(=O)N[C@@H](CCC(N)=O)C(=O)N[C@@H](CCCCN)C(=O)NC(C)(C)C(=O)N[C@@H](CCC(N)=O)C(=O)N[C@@H](CCCNC(=N)N)C(=O)N[C@@H](CCC(=O)O)C(=O)N[C@@H](CCC(N)=O)C(=O)N[C@@H](C)C(=O)N[C@@H](CCC(=O)O)C(=O)N[C@@H](CCCCN)C(=O)N[C@@H](CC(N)=O)C(=O)N[C@@H](CCCCN)C(=O)N[C@@H](CCC(N)=O)C(=O)N[C@H](C(=O)N[C@@H](CC(C)C)C(=O)N[C@@H](CCC(=O)O)C(=O)N[C@@H](CCC(N)=O)C(=O)N[C@H](C(N)=O)C(C)C)[C@@H](C)CC)[C@@H](C)CC)[C@@H](C)CC)C(C)C)C(C)C` [compound 158] (Ac-IVLSLD[dV]PIKLK([AEEA-AEEA-γGlu-C18 diacid])QILLEQERQK[Aib]QREQAEKNKQILEQV-NH2) are 0.42 nM, 5.63 nM and 5.29 nM.
Consider `CC[C@H](C)[C@H](NC(C)=O)C(=O)N[C@H](C(=O)N[C@@H](CC(C)C)C(=O)N[C@@H](CO)C(=O)N[C@@H](CC(C)C)C(=O)N[C@@H](CC(=O)O)C(=O)N[C@@H](C(=O)N1CCC[C@H]1C(=O)N[C@H](C(=O)N[C@@H](CCCCN)C(=O)N[C@@H](CC(C)C)C(=O)N[C@@H](CCCCNC(=O)COCCOCCNC(=O)COCCOCCNC(=O)CC[C@H](NC(=O)CCCCCCCCCCCCCCCCC(=O)O)C(=O)O)C(=O)N[C@@H](CCC(N)=O)C(=O)N[C@H](C(=O)N[C@@H](CC(C)C)C(=O)N[C@@H](CC(C)C)C(=O)N[C@@H](CCC(=O)O)C(=O)N[C@@H](CCC(N)=O)C(=O)N[C@@H](CCC(=O)O)C(=O)N[C@@H](CCCNC(=N)N)C(=O)N[C@@H](CCC(N)=O)C(=O)N[C@@H](CCC(=O)O)C(=O)NC(C)(C)C(=O)N[C@@H](CCC(N)=O)C(=O)N[C@@H](CCCNC(=N)N)C(=O)N[C@@H](CCC(=O)O)C(=O)N[C@@H](CCC(N)=O)C(=O)N[C@@H](C)C(=O)N[C@@H](CCC(=O)O)C(=O)N[C@@H](CCCCN)C(=O)N[C@@H](CC(N)=O)C(=O)N[C@@H](CCCCN)C(=O)N[C@@H](CCC(N)=O)C(=O)N[C@H](C(=O)N[C@@H](CC(C)C)C(=O)N[C@@H](CCC(=O)O)C(=O)N[C@@H](CCC(N)=O)C(=O)N[C@H](C(N)=O)C(C)C)[C@@H](C)CC)[C@@H](C)CC)[C@@H](C)CC)C(C)C)C(C)C` [compound 159] (Ac-IVLSLD[dV]PIKLK([AEEA-AEEA-γGlu-C18 diacid])QILLEQERQE[Aib]QREQAEKNKQILEQV-NH2), for which the 50% effective concentration (EC50) on human CRF2α receptor (setting [1]) was 1.27 nM; on human CRF2α receptor (setting [2]), 27.4 nM; in the assay with rat CRF2R α receptor, 15.6 nM.
For the molecule `CCCCCCCCCCCCCCCC(=O)N[C@@H](CCC(=O)NCCCC[C@H](NC(=O)[C@H](CC(C)C)NC(=O)[C@H](CCCCN)NC(=O)[C@@H](NC(=O)[C@@H]1CCCN1C(=O)[C@H](NC(=O)[C@H](CC(=O)O)NC(=O)[C@H](CC(C)C)NC(=O)[C@H](CO)NC(=O)[C@H](CC(C)C)NC(=O)[C@@H](NC(=O)[C@@H](N)[C@@H](C)CC)C(C)C)C(C)C)[C@@H](C)CC)C(=O)N[C@@H](CCC(N)=O)C(=O)N[C@@H](CCCCN)C(=O)N[C@@H](CC(C)C)C(=O)N[C@@H](CC(C)C)C(=O)N[C@@H](CCCCN)C(=O)N[C@@H](CCC(N)=O)C(=O)N[C@@H](CCC(N)=O)C(=O)N[C@@H](CCCNC(=N)N)C(=O)N[C@@H](CCC(N)=O)C(=O)N[C@@H](CCCNC(=N)N)C(=O)N[C@@H](CCCCN)C(=O)N[C@@H](CCC(=O)O)C(=O)N[C@@H](CCCNC(=N)N)C(=O)N[C@@H](CCC(N)=O)C(=O)N[C@@H](CCC(N)=O)C(=O)N[C@@H](C)C(=O)N[C@@H](CCC(=O)O)C(=O)N[C@@H](CCCCN)C(=O)N[C@@H](CC(N)=O)C(=O)N[C@@H](CCCCN)C(=O)N[C@@H](CCCNC(=N)N)C(=O)N[C@H](C(=O)N[C@@H](CC(C)C)C(=O)N[C@@H](CCC(=O)O)C(=O)N[C@@H](CCCNC(=N)N)C(=O)N[C@H](C(N)=O)C(C)C)[C@@H](C)CC)C(=O)O` [compound 227] (H-IVLSLD[dV]PIKLK([γGlu-Palmitoyl])QKLLKQQRQRKERQQAEKNKRILERV-NH2), the EC50 in the assay on rat CRF2R α receptor came to 0.61 nM.

These data come from US12679878B2, “CRF2 receptor agonists and their use in therapy” (SANOFI, priority 2020, dated 2026).
